Patent US20150193575A1, “SYSTEMS AND METHODS OF SELECTING COMPOUNDS WITH REDUCED RISK OF CARDIOTOXICITY” (The Governors of the University of Alberta, priority 2013, published 2015)

Legend:
hERG1 potassium channel = hERG1 potassium channel (Homo sapiens, UniProt Q12809); assay: in vitro
Procedure: Mammalian cells expressing the hERG1 potassium channel were dispensed into 384-well planar arrays and hERG tail-currents were measured by whole-cell voltage-clamping. A range of concentrations (TBD) of the test compounds were then added to the cells and a second recording of the hERG current was made. The percent change in hERG current was calculated.
The experiments were performed on an IonWorks™ FIT instrument (Molecular Devices Corporation), which automatically performs electrophysiology measurements in 48 single cells simultaneously in a specialised 384-well plate (PatchPlate™). All cell suspensions, buffers and test compound solutions were at room temperature during the experiment.
The cells used were Chinese hamster ovary (CHO) cells stably transfected with hERG (cell-line obtained from Cytomyx, UK). A single-cell suspension was prepared in extracellular solution (Dulbecco's phosphate buffered saline with calcium and magnesium pH 7-7.2) and aliquots were added automatically to each well of a PatchPlate™. The cells were then positioned over a small hole at the bottom of each well by applying a vacuum beneath the plate to form an electrical seal. The vacuum was applied through a single compartment common to all wells which were filled with intracellular solution (buffered to pH 7.2 with HEPES). The resistance of each seal was measured via a common ground-electrode in the intracellular compartment and individual electrodes placed into each of the upper wells.
Electrical access to the cell was then achieved by circulating a perforating agent, amphotericin, underneath the PatchPlate™ and then measuring the pre-compound hERG current. An electrode was positioned in the extracellular compartment and a holding potential of −80 mV for 15 sec was applied. The hERG channels were then activated by applying a depolarising step to +40 mV for 5 sec and then clamped at −50 mV for 4 sec to elicit the hERG tail current, before returning to −80 mV for 0.3 s.
A test compound was then added automatically to the upper wells of the PatchPlate™ from a 96-well microtitre plate containing a range of concentrations of each compound. Solutions were prepared by diluting DMSO solutions of the test compound into extracellular buffer. The test compound was left in contact with the cells for 300 sec before recording currents using the same voltage-step protocol as in the pre-compound scan. […] Each concentration was tested in 4 replicate wells on the PatchPlate™.
Post-compound currents were then expressed as a percentage of pre-compound currents and plotted against concentration for each compound. Where concentration-dependent inhibition is observed, the data are fitted to the following equation and an IC50 value calculated: […]
An IC50 was reported if concentration-dependent inhibition is observed. The standard error (SE) of the IC50 model and the number of data-points used to determine IC50 was also reported.

hERG channel [1] = target: T1, hERG channel (Homo sapiens, UniProt Q12809); assay: Predictor hERG fluorescence polarization assay
T1 sequence (Q12809 whole entry): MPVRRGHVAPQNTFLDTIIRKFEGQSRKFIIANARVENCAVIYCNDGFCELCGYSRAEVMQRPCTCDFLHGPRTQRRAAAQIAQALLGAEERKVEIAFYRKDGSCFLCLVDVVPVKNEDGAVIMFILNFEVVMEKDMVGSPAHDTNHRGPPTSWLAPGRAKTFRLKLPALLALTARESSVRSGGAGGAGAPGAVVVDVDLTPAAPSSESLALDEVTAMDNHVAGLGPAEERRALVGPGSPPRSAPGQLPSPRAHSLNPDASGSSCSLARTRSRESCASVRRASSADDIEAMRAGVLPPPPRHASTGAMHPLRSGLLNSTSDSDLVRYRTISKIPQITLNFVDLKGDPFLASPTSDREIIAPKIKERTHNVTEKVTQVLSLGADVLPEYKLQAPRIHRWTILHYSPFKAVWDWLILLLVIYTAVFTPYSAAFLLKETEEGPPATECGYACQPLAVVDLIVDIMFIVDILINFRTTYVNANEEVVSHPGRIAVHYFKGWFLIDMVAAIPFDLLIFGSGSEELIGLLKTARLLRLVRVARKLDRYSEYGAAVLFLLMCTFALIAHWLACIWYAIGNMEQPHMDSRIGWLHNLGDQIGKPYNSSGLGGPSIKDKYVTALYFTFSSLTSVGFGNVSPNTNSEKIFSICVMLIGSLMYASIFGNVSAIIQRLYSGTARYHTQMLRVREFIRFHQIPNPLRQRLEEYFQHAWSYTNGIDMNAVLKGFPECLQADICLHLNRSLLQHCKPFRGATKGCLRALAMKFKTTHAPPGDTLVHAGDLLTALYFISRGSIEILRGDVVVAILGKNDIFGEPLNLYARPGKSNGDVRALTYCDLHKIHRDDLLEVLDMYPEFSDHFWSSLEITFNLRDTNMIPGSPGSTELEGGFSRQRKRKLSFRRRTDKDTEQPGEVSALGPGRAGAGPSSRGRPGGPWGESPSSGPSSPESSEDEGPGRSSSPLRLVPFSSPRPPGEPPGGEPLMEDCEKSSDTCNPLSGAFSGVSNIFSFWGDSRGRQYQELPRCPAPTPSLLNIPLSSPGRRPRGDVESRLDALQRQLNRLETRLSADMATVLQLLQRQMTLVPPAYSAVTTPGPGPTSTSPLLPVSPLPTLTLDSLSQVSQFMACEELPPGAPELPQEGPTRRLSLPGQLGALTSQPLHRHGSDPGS
Procedure: Compounds that bind to the hERG channel proteins were identified by their ability to displace the tracer (Predictor hERG Tracer Red) and decrease the fluorescence polarization. The Tracer Red ligand was stored in 100% DMSO and diluted to 8 nM in assay buffer (50 mM Tris-HCl, 1 mM MgCl2, 10 mM KCl, 0.05% Pluronic F127, pH 7.4, 4° C.) on the day of the experiment. Test samples and controls were diluted in assay buffer to 16 concentrations with half-log intervals. Cell membranes were removed from the −80° C. freezer and placed on ice after defrosting. Membranes working solution protein concentration was 0.3 mg/mL. […] IC50 values were derived by fitting a sigmoidal function to concentration-response data, where concentration-dependent inhibition was observed. All IC50 data were calculated and analyzed using GraphPad Prism 6 (GraphPad Software).

hERG channel [2] = target: T1, hERG channel; assay: Automated patch clamp (IonFlux) on AC10 cardiomyocytes stably expressing hERG; conditions: for effect on hERG tail currents / electrophysiology (in words): AC10 cardiomyocytes
[3] = clinical trial, placed on clinical hold by the FDA; cited from earlier work
hERG1 = hERG1 (Homo sapiens, UniProt Q12809); assay: FluxOR potassium channel assay in HEK 293 cells stably expressing hERG1
Sequence of hERG1 (Q12809 whole entry): as above
Procedure: The FluxOR™ assay monitors the permeability of potassium channels to thallium (Tl^+) ions. When thallium is added to the extracellular solution with a stimulus to open channels, thallium flows down its concentration gradient into the cells, and channel or transporter activity is detected with a proprietary indicator dye that increases in cytosolic fluorescence. Accordingly, the fluorescence reported in the FluxOR™ system is an indicator of any ion channel activity or transport process that allows thallium into cells.
Briefly, FluxOR™ loading buffer was made from Hank's Balanced Saline Solution (HBSS) buffered with 20 mM HEPES and pH adjusted with NaOH to 7.4. Powerload™ concentrate and water-soluble probenecid were used as directed by the kit to enhance the dye solubility and retention, respectively. Media were removed from the cell plates manually, and 20 of loading buffer containing the FluxOR™ dye mix was applied to each well. Once inside the cell, the nonfluorescent AM ester form of the FluxOR™ dye was cleaved by endogenous esterases into a thallium-sensitive indicator. The dye was loaded for 60 min at room temperature and then removed manually. […] To each well 20 μL stimulation buffer was added and fluorescence measures were done every 1 sec for a total time of 180 sec.

Sequence of hERG1 potassium channel (Q12809 whole entry): as above

Compound | inhibition at 300 sec, 0.0032 µM (hERG1 potassium channel; human) [%] | inhibition at 300 sec, 0.016 µM (hERG1 potassium channel; human) [%] | inhibition at 300 sec, 0.08 µM (hERG1 potassium channel; human) [%] | inhibition at 300 sec, 0.4 µM (hERG1 potassium channel; human) [%] | inhibition at 300 sec, 2 µM (hERG1 potassium channel; human) [%] | inhibition at 300 sec, 10 µM (hERG1 potassium channel; human) [%] | IC50 (hERG channel [1]) [nM] | IC50 (hERG channel [2]) [nM] | also measured
CC(=O)Oc1ccccc1C(=O)O [Aspirin, acetyl salicylic acid] | -2.97 | -3.09 | -21 | -5.88 | -3.71 | -0.546 | – | – | –
COc1nc(N)nc2c1ncn2[C@@H]1O[C@H](COP(=O)(N[C@@H](C)C(=O)OCC(C)(C)C)Oc2cccc3ccccc23)[C@@H](O)[C@@]1(C)O (some centres unmarked) [BMS986094] | – | – | – | – | – | – | 3.75 | 266 | –
COc1nc(N)nc2c1ncn2C1O[C@H](COP(=O)(N[C@H](C)C(=O)OCC(C)(C)C)Oc2cccc3ccccc23)[C@@H](O)[C@@]1(C)O (stereo partly drawn) [BMS-986094, (2R)-neopentyl 2-(((((2R,3R,4R)-5-(2-amino-6-methoxy-9H-purin-9-yl)-3,4-dihydroxy-4-methyltetrahydrofuran-2-yl)methoxy)(naphthalen-1-yloxy)phosphoryl)amino)propanoate] | 18.2 | -4.94 | -8.97 | -5.33 | – | 23.3 | 3 | 266 | inhibition of the potassium channel (in words) (hERG1 potassium channel; CHO cells stably transfected with hERG): inhibit the potassium channel; effects on QT interval prolongation in patients (in words) [3]: nine patients in a clinical trial had to be hospitalized and one of them died; block of conductance of the potassium channel (in words) (hERG1): block conductance of the potassium channel; effect on hERG tail currents / electrophysiology (in words) (hERG channel [2]): potently blocks hERG tail currents
Nc1nc2c(ncn2[C@@H]2O[C@H](CO)[C@@H](O)[C@H]2O)c(=O)[nH]1 [Guanosine, guanosine] | 0.711 | 6.12 | -3.46 | 26.3 | 0.453 | 5.54 | – | – | displacement of the hERG-bound dye (in words) (hERG channel [1]): no detectable effect on hERG blockage; effect on hERG tail currents / electrophysiology (in words) (hERG channel [2]): none of BMS-986094 metabolites demonstrates either hERG cavity binding or electrophysiology changes
O=c1[nH]c2ccccc2n1C1CCN(CCCC(c2ccc(F)cc2)c2ccc(F)cc2)CC1 [Pimozide] | – | – | – | – | – | – | – | – | inhibition at 300 sec, 0.00032 µM (hERG1 potassium channel; human): 2.29%; inhibition at 300 sec, 0.0016 µM (hERG1 potassium channel; human): 4.56%; inhibition at 300 sec, 0.008 µM (hERG1 potassium channel; human): 5.6%; inhibition at 300 sec, 0.04 µM (hERG1 potassium channel; human): 25.1%; inhibition at 300 sec, 0.2 µM (hERG1 potassium channel; human): 9.44%; inhibition at 300 sec, 1 µM (hERG1 potassium channel; human): 83.2%
CC(C)NCC(O)c1ccc(NS(C)(=O)=O)cc1 (centres unmarked) [Sotalol] | 1.69 | -0.73 | 20.4 | 10.9 | 1.72 | 0.95 | – | – | –
CS(=O)(=O)c1ccc(C2=C(c3ccccc3)C(=O)OC2)cc1 [rofecoxib] | – | – | – | – | – | – | 5830 | 15000 | –
